Laboratory results published in ChEMBL document CHEMBL1131670, “N-hydroxyurea and hydroxamic acid inhibitors of cyclooxygenase and 5-lipoxygenase” (Bioorg Med Chem Lett, 1999).
Each block holds one compound with its values, some of them ahead of it.

How the values were obtained:
[1] = target: T1, Polyunsaturated fatty acid 5-lipoxygenase (Homo sapiens) (UniProt P09917); test: Inhibitory activity against 5-lipoxygenase (5-LO) in after oral administration of 5 mg/kg at 4 hr to canine; assay type: organism-based; set-up: dose 5 mg/kg; details: Canis lupus familiaris; target entry is the homologue from another species; at 5 mg/kg
T1 sequence (whole entry): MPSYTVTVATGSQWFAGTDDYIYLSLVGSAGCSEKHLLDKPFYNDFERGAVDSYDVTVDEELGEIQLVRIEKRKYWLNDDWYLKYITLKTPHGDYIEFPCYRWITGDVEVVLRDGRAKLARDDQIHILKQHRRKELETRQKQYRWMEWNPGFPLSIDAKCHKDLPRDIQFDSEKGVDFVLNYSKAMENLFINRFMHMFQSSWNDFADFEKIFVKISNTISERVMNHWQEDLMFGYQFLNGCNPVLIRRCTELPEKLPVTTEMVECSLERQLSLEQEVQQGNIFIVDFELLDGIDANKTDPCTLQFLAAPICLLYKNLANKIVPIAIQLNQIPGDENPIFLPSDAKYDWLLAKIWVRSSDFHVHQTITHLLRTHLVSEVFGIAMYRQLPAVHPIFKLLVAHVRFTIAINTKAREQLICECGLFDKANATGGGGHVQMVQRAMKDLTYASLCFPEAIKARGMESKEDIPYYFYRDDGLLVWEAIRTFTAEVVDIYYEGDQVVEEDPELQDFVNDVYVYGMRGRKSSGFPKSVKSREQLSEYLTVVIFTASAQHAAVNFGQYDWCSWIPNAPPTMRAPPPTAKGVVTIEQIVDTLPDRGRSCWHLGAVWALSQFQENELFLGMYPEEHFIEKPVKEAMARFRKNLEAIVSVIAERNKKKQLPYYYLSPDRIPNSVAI

[2] = target: T2, Cyclooxygenase (Rattus norvegicus, UniProt P35355+Q63921); test: (§1) Inhibitory activity against Cyclooxygenase (COX) using broken rat […] leukemia cells (RBL-1); assay type: cell-based
T2 sequence (P35355 whole entry): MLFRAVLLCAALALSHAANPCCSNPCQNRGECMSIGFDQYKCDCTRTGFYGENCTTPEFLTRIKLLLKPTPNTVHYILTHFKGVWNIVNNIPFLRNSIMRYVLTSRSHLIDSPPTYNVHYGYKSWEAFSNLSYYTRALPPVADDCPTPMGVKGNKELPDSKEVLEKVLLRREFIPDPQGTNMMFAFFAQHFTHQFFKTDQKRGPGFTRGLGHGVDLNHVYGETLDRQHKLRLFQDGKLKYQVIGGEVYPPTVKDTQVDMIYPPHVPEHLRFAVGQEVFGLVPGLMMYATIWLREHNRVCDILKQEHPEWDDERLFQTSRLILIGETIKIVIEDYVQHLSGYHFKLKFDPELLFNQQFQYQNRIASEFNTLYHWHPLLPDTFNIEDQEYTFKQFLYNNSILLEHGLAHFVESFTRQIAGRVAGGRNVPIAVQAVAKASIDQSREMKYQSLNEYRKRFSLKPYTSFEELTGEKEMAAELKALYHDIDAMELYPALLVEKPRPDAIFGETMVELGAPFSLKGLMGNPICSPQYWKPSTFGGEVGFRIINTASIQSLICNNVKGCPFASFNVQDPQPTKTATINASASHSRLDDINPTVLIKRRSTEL
T2 sequence (Q63921 whole entry): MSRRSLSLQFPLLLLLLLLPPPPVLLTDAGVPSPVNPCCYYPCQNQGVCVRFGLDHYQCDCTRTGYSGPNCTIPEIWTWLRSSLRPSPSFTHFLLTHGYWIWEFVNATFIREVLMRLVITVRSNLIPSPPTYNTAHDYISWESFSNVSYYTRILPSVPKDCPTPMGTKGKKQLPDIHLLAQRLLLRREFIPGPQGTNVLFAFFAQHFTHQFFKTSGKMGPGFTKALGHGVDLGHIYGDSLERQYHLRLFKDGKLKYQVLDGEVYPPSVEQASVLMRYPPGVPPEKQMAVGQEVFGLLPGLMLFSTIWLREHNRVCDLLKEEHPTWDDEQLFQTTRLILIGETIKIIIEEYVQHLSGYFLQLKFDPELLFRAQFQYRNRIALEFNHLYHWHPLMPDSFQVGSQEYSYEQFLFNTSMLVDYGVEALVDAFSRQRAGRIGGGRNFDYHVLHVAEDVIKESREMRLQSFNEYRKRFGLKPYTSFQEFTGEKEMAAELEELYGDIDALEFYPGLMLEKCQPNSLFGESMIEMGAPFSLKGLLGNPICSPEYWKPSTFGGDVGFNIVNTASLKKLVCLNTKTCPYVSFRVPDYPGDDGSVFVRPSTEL

[3] = target: T1, Polyunsaturated fatty acid 5-lipoxygenase (Homo sapiens); test: Inhibitory activity against 5-lipoxygenase (5-LO) in after oral administration of 5 mg/kg at 24 hr r to canine; assay type: organism-based; set-up: dose 5 mg/kg; details: Canis lupus familiaris; target entry is the homologue from another species; at 5 mg/kg
[4] = target: T1, Polyunsaturated fatty acid 5-lipoxygenase (Homo sapiens); test: Inhibitory activity against 5-lipoxygenase (5-LO) in after oral administration of 5 mg/kg at 8 hr to canine; assay type: organism-based; set-up: dose 5 mg/kg; details: Canis lupus familiaris; target entry is the homologue from another species; at 5 mg/kg
[5] = target: T3, Cyclooxygenase (Homo sapiens) (UniProt P35354+P23219); test: Inhibitory activity against cyclooxygenase (COX) in after oral administration of 5 mg/kg at 8 hr to canine; assay type: organism-based; set-up: dose 5 mg/kg; details: Canis lupus familiaris; target entry is the homologue from another species; at 5 mg/kg
[6] = target: T3, Cyclooxygenase (Homo sapiens); test: Inhibitory activity against cyclooxygenase (COX) in after oral administration of 5 mg/kg at 24 hr r; assay type: organism-based; set-up: dose 5 mg/kg; details: Canis lupus familiaris; at 5 mg/kg
[7] = target: T3, Cyclooxygenase (Homo sapiens); test: Inhibitory activity against cyclooxygenase (COX) in after oral administration of 5 mg/kg at 2 hr to canine; assay type: organism-based; set-up: dose 5 mg/kg; details: Canis lupus familiaris; target entry is the homologue from another species; at 5 mg/kg
[8] = target: T3, Cyclooxygenase (Homo sapiens); test: Inhibitory activity against cyclooxygenase (COX) in after oral administration of 5 mg/kg at 4 hr to canine; assay type: organism-based; set-up: dose 5 mg/kg; details: Canis lupus familiaris; target entry is the homologue from another species; at 5 mg/kg
[9] = target: T1, Polyunsaturated fatty acid 5-lipoxygenase (Homo sapiens); test: Inhibitory activity against 5-lipoxygenase (5-LO) in after oral administration of 5 mg/kg at 2 hr to canine; assay type: organism-based; set-up: dose 5 mg/kg; details: Canis lupus familiaris; target entry is the homologue from another species; at 5 mg/kg
[10] = target: T2, Cyclooxygenase; test: Inhibitory activity against cyclooxygenase (COX) in intact rat […] leukemia cells (RBL-1); assay type: cell-based
[11] = target: T4, Polyunsaturated fatty acid 5-lipoxygenase (Rattus norvegicus, UniProt P12527); test: Inhibitory activity against 5-lipoxygenase (5-LO) using broken rat […] leukemia cells (RBL-1); assay type: cell-based
T4 sequence (P12527 whole entry): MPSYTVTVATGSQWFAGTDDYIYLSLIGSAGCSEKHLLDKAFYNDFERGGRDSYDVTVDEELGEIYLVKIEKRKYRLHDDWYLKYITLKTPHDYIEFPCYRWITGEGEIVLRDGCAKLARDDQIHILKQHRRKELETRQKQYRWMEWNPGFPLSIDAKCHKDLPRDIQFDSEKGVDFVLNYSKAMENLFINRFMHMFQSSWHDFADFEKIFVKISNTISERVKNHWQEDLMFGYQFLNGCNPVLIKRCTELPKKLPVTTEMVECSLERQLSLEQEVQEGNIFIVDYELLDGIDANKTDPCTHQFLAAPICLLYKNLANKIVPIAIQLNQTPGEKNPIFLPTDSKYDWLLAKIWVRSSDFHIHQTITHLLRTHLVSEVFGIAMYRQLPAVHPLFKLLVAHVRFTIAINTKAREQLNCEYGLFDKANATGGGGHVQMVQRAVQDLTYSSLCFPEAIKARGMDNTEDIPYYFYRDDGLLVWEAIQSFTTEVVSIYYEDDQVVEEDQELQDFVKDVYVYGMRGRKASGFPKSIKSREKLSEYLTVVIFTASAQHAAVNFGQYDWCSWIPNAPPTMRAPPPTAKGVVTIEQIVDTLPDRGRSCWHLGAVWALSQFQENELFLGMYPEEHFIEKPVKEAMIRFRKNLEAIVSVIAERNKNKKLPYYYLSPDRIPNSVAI

[12] = target: T3, Cyclooxygenase (Homo sapiens); test: Inhibitory activity against cyclooxygenase (COX) in after oral administration of 5 mg/kg at 8 hr; assay type: organism-based; set-up: dose 5 mg/kg; details: Canis lupus familiaris; at 5 mg/kg
[13] = target: T1, Polyunsaturated fatty acid 5-lipoxygenase (Homo sapiens); test: Inhibitory activity against 5-lipoxygenase (5-LO) in after oral administration of 5 mg/kg at 4 hr; assay type: organism-based; set-up: dose 5 mg/kg; details: Canis lupus familiaris; at 5 mg/kg
[14] = target: T3, Cyclooxygenase (Homo sapiens); test: Inhibitory activity against cyclooxygenase (COX) in after oral administration of 5 mg/kg at 4 hr; assay type: organism-based; set-up: dose 5 mg/kg; details: Canis lupus familiaris; at 5 mg/kg
[15] = target: T1, Polyunsaturated fatty acid 5-lipoxygenase (Homo sapiens); test: Inhibitory activity against 5-lipoxygenase (5-LO) in after oral administration of 5 mg/kg at 24 hr r; assay type: organism-based; set-up: dose 5 mg/kg; details: Canis lupus familiaris; at 5 mg/kg
[16] = target: T1, Polyunsaturated fatty acid 5-lipoxygenase (Homo sapiens); test: Inhibitory activity against 5-lipoxygenase (5-LO) in after oral administration of 5 mg/kg at 8 hr; assay type: organism-based; set-up: dose 5 mg/kg; details: Canis lupus familiaris; at 5 mg/kg
[17] = target: T1, Polyunsaturated fatty acid 5-lipoxygenase (Homo sapiens); test: Inhibitory activity against 5-lipoxygenase (5-LO) in after oral administration of 5 mg/kg at 2 hr; assay type: organism-based; set-up: dose 5 mg/kg; details: Canis lupus familiaris; at 5 mg/kg
[18] = target: T5, Polyunsaturated fatty acid 5-lipoxygenase (Rattus norvegicus) (UniProt P12527); test: Inhibitory activity against 5-lipoxygenase (5-LO) using broken rat […] leukemia cells (RBL-1) at 10 uM; assay type: cell-based
T5 sequence (whole entry): T4 sequence (P12527 whole entry)

[19] = target: T6, Prostaglandin G/H synthase 1 (Ovis aries) (UniProt P05979); test: Inhibitory activity against Cyclooxygenase using sheep seminal vesicle (SSV) enzyme (COX-1) Inhibition at 10 uM; assay type: tissue-based
T6 sequence (whole entry): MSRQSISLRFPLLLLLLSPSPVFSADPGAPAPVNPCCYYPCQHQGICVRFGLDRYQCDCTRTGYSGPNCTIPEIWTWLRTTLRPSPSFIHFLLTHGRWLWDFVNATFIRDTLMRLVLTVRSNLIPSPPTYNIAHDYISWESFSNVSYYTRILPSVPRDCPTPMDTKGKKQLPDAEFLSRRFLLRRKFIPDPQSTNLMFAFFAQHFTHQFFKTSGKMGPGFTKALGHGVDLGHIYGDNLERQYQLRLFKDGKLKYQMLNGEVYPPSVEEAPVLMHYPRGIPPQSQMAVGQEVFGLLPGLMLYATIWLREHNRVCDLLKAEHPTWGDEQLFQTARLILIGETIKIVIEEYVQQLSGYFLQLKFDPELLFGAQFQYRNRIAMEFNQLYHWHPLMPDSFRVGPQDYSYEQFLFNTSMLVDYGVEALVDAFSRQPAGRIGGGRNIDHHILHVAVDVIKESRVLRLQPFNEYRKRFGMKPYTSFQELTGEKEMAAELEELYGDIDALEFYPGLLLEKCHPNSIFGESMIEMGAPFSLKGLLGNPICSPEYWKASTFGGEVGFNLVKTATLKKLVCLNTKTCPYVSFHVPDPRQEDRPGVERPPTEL

[20] = target: T7, Cyclooxygenase (Rattus norvegicus) (UniProt P35355+Q63921); test: Inhibitory activity against Cyclooxygenase (COX) using broken rat […] leukemia cells (RBL-1) at 10 uM; assay type: cell-based
[21] = target: T5, Polyunsaturated fatty acid 5-lipoxygenase (Rattus norvegicus); test: Inhibitory activity against 5-lipoxygenase (5-LO) using broken rat […] leukemia cells (RBL-1)at 10 uM; assay type: cell-based
[22] = target: T7, Cyclooxygenase (Rattus norvegicus); test: as §1; assay type: cell-based; details: concentration not given here
[23] = target: T6, Prostaglandin G/H synthase 1 (Ovis aries); test: Inhibitory activity against Cyclooxygenase using sheep seminal vesicle (SSV) enzyme (COX-1) at 10 uM; assay type: tissue-based

inhibition [1]: 32%
IC50 [2]: 310 nM
inhibition [3]: 10%
inhibition [4]: 15%
inhibition [5]: 46%
inhibition [6]: 11%
inhibition [7]: 82%
inhibition [8]: 76%
inhibition [9]: 53%
IC50 [10]: 12100 nM
SMILES: COc1ccc(-n2nc(C#CCN(O)C(N)=O)cc2-c2ccc(C)cc2)cc1

inhibition [12]: 62%
inhibition [13]: 20%
inhibition [14]: 75%
inhibition [15]: 12%
inhibition [16]: 31%
inhibition [6]: 68%
inhibition [7]: 92%
inhibition [17]: 34%
SMILES: COc1ccc(-n2nc(C#CC(C)N(O)C(C)=O)cc2-c2ccc(Cl)cc2)cc1 (stereo not drawn)

inhibition [21]: 100%
inhibition [22]: 100%
inhibition [23]: 74%
IC50 [10]: 30 nM
SMILES: COc1ccc(-n2nc(C#CCN(O)C(C)=O)cc2-c2ccc(C)cc2)cc1

The remaining lines, values behind:

SMILES: COc1ccc(-n2nc(CCC(=O)N(C)O)cc2-c2ccc(Cl)cc2)cc1 [TEPOXALIN]
IC50 [2]: 4200 nM
IC50 [11]: 1700 nM
IC50 [10]: 2850 nM

SMILES: CNC(=O)N(O)C(C)C#Cc1cc(-c2ccc(Cl)cc2)n(-c2ccc(OC)cc2)n1 (stereo not drawn)
inhibition [18]: 79%
inhibition [19]: 5%
inhibition [20]: 0%
